Key:
[1] = test system: AR; set-up: method as in PMID 24742982; details: cited from earlier work
[2] = test system: AR transactivation; assay: AR transcriptional reporter assay in PC-3 cells; format: cell-based, human; details: 10 nM DHT, 1 µM
Description: Figure 1 Associations between RIPK1 and AR (A) Co-IP of Flag-RIPK1 with Flag-AR in the 293T cell line. Extracts of 293T cells overexpressing 3xFlag-RIPK1 and 3xFlag-AR were treated with […]. IP was performed using anti-AR (C19) or anti-RIPK1 antibody or normal rabbit serum (negative control), followed by immunoblotting (IB) with antibodies against AR or RIPK1. (B) RIPK1 interacts with full-length AR and the N- and C-terminal regions of AR in GST pull-down assays. Mutation of the FxxFY motif to AxxAA in RIPK1 reduced interactions with AR. […] (C) Transfection of PC-3 prostate cancer cells with AR and RIPK1. PC-3 cells in 24-well plates were co-transfected with 300 ng MMTV-LUC reporter plasmid and 0.5 ng SV40-Renilla luciferase plasmid, together with 100 ng pCMV-Flag-AR and 100, 300 or 500 ng p3xFLAG- RIPK1. The total plasmid DNA content was made up to 1 µg with pCMV. After 16 h, ethanol or 10 nM DHT was added and cells incubated for an additional 16 h. DHT was used as the AR ligand while ARA70N served as the positive control. Relative LUC activity was determined using the dual luciferase system. (D) RIPK1 functional domain mapping in relation to AR transactivation. PC-3 cells were transfected with pCMV-Flag-AR and RIPK1 expression plasmid, P3xFlag-RIPK1 full-length, P3xFlag-RIPK1-(240-671) or P3xflag-RIPK1-(1-558) plasmid, and cultured overnight. Ethanol or 10 nM DHT was added and cells incubated for an additional 16 h. Relative LUC activity was determined using the dual luciferase system. (E) RIPK1 is expressed in benign prostatic hyperplasia tissue, displaying strong positivity (3+, > 90%) in the gland area but weak (1+, 50%) staining in the background. (F) Human prostate cancer tissues were immunostained for RIPK1. “T” indicates the tumor area (right side) and “Non-T” the non-tumor area (left side). RIPK1 expression was weak (1+, 80%) in the cancer area but remained strong (3+, 70%) in the peri-cancer area. The figures are representative of three benign prostatic gland hyperplasia and cancer tissues.
The PC-3 prostate cancer cell line was used for experiments. […]

[3] = target: W741L-AR (bicalutamide-associated mutant androgen receptor, mammalian two-hybrid) (human); assay: two-hybrid; mammalian two-hybrid (MM2H) in PC-3 cells; Gal-4 peptide fusion with AR; CDX (bicalutamide) 10 µM; values relative to Gal-4 alone
Sequence of W741L-AR (bicalutamide-associated mutant androgen receptor, mammalian two-hybrid) (human) (P10275 whole entry, stated change not applied, the tested form may be a part): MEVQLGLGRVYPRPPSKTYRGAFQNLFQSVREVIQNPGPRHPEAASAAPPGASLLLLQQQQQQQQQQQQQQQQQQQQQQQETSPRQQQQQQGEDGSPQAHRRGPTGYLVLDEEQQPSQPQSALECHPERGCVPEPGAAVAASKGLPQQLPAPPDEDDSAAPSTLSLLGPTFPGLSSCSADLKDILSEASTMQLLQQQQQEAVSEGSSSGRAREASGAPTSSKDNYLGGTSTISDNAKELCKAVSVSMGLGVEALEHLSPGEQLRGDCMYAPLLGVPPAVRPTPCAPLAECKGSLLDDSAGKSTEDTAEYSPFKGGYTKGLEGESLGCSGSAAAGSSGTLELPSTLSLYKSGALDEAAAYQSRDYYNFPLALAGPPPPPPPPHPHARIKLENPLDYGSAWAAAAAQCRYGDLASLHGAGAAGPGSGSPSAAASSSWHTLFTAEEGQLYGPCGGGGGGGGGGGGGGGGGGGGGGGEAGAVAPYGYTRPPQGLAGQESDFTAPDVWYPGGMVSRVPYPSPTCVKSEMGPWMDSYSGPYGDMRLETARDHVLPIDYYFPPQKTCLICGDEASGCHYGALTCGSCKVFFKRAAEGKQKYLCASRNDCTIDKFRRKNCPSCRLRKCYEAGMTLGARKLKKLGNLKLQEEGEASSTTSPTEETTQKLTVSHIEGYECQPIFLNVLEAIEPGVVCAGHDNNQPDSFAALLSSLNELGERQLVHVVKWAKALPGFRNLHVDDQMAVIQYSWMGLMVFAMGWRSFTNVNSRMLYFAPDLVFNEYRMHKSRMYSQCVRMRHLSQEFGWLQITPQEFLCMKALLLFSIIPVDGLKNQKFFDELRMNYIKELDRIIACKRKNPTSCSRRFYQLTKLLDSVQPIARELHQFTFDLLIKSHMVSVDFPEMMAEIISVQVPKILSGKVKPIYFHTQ

Molecule | relative reporter activity in the mammalian two-hybrid assay (Gal-4 alone = 1) [3] | other results
Nc1cc(N2CCCCC2)nc(N)[n+]1[O-] [Minoxidil] | – | suppression of AR related function [1]: suppress AR related function
CNC(=O)c1ccc(N2C(=S)N(c3ccc(C#N)c(C(F)(F)F)c3)C(=O)C2(C)C)cc1F [enzalutamide, reference compound] | – | suppression of AR transactivation [2]: suppressed AR transactivation
GIEEKFRPFYLSQLE [RIP-p, short FxxFY-containing peptide of RIPK1 (No. 13)] | 554 | –
NTNAFSRLFYPS [#3-18 peptide (No. 12, positive control; GAL4-DBD-3-18)] | 128 | –
